Experimental data from a melting point compilation (Tetko et al.; mined from patent text by program, amines drawn as free bases though some values may be those of a salt).

melting point	SMILES
194 to 196 °C	CNC(=O)C1CC(=O)c2nc(C)n(C)c2C1 (stereo not drawn)
> 188 °C	O=C(O)c1cc(NCc2ccc(C(F)(F)F)cc2)ccc1O
174 to 176 °C	CC(=O)C1CCC2C3CCC4CC(OC(=O)OCC(Cl)(Cl)Cl)CCC4(C)C3C(NC(=O)OCC(Cl)(Cl)Cl)CC12C (stereo not drawn)
220 to 222 °C	CCOc1cc2c(Nc3cc(OC)c(Cl)cc3Cl)c(C#N)cnc2cc1C#CCCO
190 to 195 °C	O=C(O)c1cccc(-c2nc3sccn3c2-c2ccnc(N[C@@H]3CCCN(S(=O)(=O)c4ccc(Cl)cc4)C3)n2)c1
132 °C	CC(=O)C(=[N+]=[N-])C(=O)OCc1ccc([N+](=O)[O-])cc1
170 to 171 °C	COC(=O)C(C)(C)Cc1c(SC(C)(C)C)c2cc(O)ccc2n1Cc1ccc(Cl)cc1
69 to 70 °C	CCOC(=O)COc1cc2cc(C(O)CC)sc2c(Cl)c1Cl (stereo not drawn)
270 to 272 °C	N#Cc1[nH]c(-c2c(Cl)cc(C(F)(F)F)cc2Cl)nc1Br
162 to 165 °C	CC12CCC(=O)C=C1CCC1C3CC(OCCO)C(O)(C(=O)CO)C3(C)CC(O)C12F (stereo not drawn)
175 to 178 °C	O=C(Nc1ccccc1)Nc1nc(C(O)CO)cs1 (stereo not drawn)
184 to 187 °C	N#Cc1cnn2c1N(C(=O)CN1CCN(C(=O)Nc3ccccc3)CC1)CC=C2c1cccc(C(F)(F)F)c1
172 to 173 °C	OCCOCCN1CCN(C2=Nc3ccccc3Sc3ccccc32)CC1
75 to 76 °C	CC1(C)CCC(C)(C)c2cc(Oc3ccc(C=O)cc3)ccc21
109 to 110 °C	Nc1ncnc2c1c(-c1ccccc1Oc1ccccc1)cn2C1CCCC1
195 to 196 °C	N#Cc1ccc2c(c1)C(=O)OC2
63 to 65 °C	COc1cc(CNC(=S)NC(COC(=O)C(C)(C)C)Cc2ccc(C(C)(C)C)cc2)ccc1OCCN (stereo not drawn)
143 to 145 °C	CCCn1nc2c(N)nc3c(c2c1CC(C)(C)O)CCCC3
271 to 273 °C	CS(=O)(=O)c1ccc(-c2c(-c3ccc(O)cc3)[nH]c3ccc(Cl)cc23)cc1
118 to 120 °C	CSc1ccc(COc2c(C)c(C)c3c(c2C)C(c2ccc(C(C)C)cc2)C(C)(C)O3)cc1 (stereo not drawn)
186 °C	O=C(NCC1CCN(CC2(C(=O)O)CC2)CC1)N1C(=O)C2(CCCC2)c2ccccc21
98 °C	O=C(O)C1(CC#CBr)CCCCC1
262 to 263 °C	O=C1c2ccccc2C(=O)N1CC(=O)N1c2ccccc2N(Cc2ccccc2)C(=O)C(Cc2ccccc2)C1C(F)(F)F (stereo not drawn)
192 to 195 °C	CCOc1cccc(-c2ccc3c(c2)C=C(C(=O)Nc2ccc(CN(C)C4CCOCC4)cc2)CCS3(=O)=O)c1

melting point	SMILES
73 to 77 °C	O=C(Nc1ccccn1)C(CC1CCCC1)c1ccc(-c2cccc3ccccc23)cc1 (stereo not drawn)
101 to 103 °C	O=Cc1cc(N2CCN(Cc3ccccc3)CC2)ccc1O
138 to 139 °C	CCOP(=O)(CCc1ccnc(-c2nc(=O)c3ccc(Cl)cc3s2)c1)OCC
244 °C	O=C(NCC(=O)N(c1ccccc1)c1ccccc1)Nc1cccc(O)c1
78 °C	O=C1CC[C@](CO)(COCc2ccccc2)O1
> 250 °C	O=Cc1c[nH]c2c1ccc1c2[nH]c2cc(Cl)cc(Cl)c21
138 to 141 °C	Cc1cc(I)ccc1-c1cccc(C(N)=O)c1
152 to 153 °C	CCc1cc(/C=C/C(N)=O)ccc1Cl
161 to 162 °C	CC(C)(C)c1ccc(N(c2ccc(-c3ccc(Nc4ccccc4)cc3)cc2)c2ccc(C(C)(C)C)cc2)cc1
172 to 174 °C	CC(C)(C)c1ccc(C=O)cc1NC(=O)CC1c2ccccc2Oc2ccccc21
265 to 268 °C	Cc1nnc2ccc(-c3cccc(NC=O)c3)nn12
230 °C	C#CCOc1ccc2c(c1)c(-c1ccc(C(C)C)cc1)nc(=O)n2Cc1cccc(O)c1
242 to 244 °C	O=CCCc1cc(F)c2ncc(C(=O)NCc3ccc(Cl)cc3)c(O)c2c1
180 to 181 °C	CSc1ccc(-c2nc(SC)c(C#N)c(=O)n2-c2ccc(C(C)C)cc2)cc1
80 to 81 °C	COC(=O)CCCC(=O)c1ccc2c(c1)CCO2
200 to 205 °C	Cn1c(C(F)(F)F)cc(=O)n(-c2ccc3snc(N4CCOCC4)c3c2)c1=O
77 to 79 °C	CC(C)(C)OC(=O)C(CCCCNC(=O)OCc1ccccc1)NC(=O)C(F)(F)F (stereo not drawn)
193 to 194 °C	Cc1cccc(CCC(O)c2ccccc2)c1NC(=O)CC1c2ccccc2Oc2ccccc21 (stereo not drawn)
256 to 259 °C	CC(=NO)c1nc(N)nc(N)c1-c1ccc(Cl)cc1
311 to 312 °C	N#Cc1ccc(-c2ccc(-c3ccc(C#N)cn3)o2)nc1
79 to 80 °C	COC(=O)C1=C(OC)c2ccccc2S(=O)(=O)N1C
170 to 172 °C	COC(=O)c1c(S(N)(=O)=O)c(C)nn1-c1ccccn1
202 to 204 °C	O=C(Nc1ccc(C(=O)N2CCCc3ccccc32)cc1)c1ccccc1
214 to 216 °C	CS(=O)(=O)Nc1cc(C(c2cc(F)ccc2F)S(=O)(=O)c2ccc(Cl)cn2)c(Cl)cn1 (stereo not drawn)

melting point	SMILES
103 to 105 °C	CC1C(=O)Oc2cc(N3CCOCC3)c(Cl)cc21 (stereo not drawn)
100 to 103 °C	C=CCN1C2CCC1C1CCC2N1C(c1ccc(C(=O)N(C)C)cc1)c1cccc(OC)c1 (stereo not drawn)
78 to 80 °C	CC(=O)N1CCC(Oc2ccc(N(C)C)cc2)CC1
120 to 140 °C	CS(=O)(=O)NCC(=O)N1CCC(C2c3ncc(Br)cc3CCc3cc(Cl)cc(Cl)c32)CC1 (single isomer, unassigned; (+))
126 to 128 °C	CCOC(=O)C=Cc1cc(OCc2ccccc2)ccc1-c1ccc(-c2cccnc2)c(C=O)c1
> 225 °C	N[C@@H]1C(=O)Nc2ccccc2-c2ccccc21
154 to 155 °C	CC[C@@H]1C[C@H](NC(=O)OCc2ccccc2)c2cc(C(F)(F)F)ccc2N1
240 to 241 °C	CCn1cc2c(n1)c(=O)[nH]c1cc(OCc3ccccc3)ccc12
130 to 132 °C	CN(N)c1nc(C(F)(F)F)nc2ccccc12
120 °C	ON=C1CCC(c2ccccc2F)c2ccccc21 (stereo not drawn)
128 to 132 °C	Cc1cc(SC2=C(O)C[C@@](CCc3cccc(O)c3)(C3CCCC3)OC2=O)c(C(C)(C)C)cc1CO
157 to 159 °C	COc1cccc(CCc2c(CCNC(=O)CCCCC(=O)NCCc3ccc(NS(C)(=O)=O)cc3)ccc(OC)c2OC)c1
239 to 240 °C	COc1cc(Nc2c(C#N)cnc3cc(-c4ccc(Cn5ccnn5)cc4)ccc23)c(Cl)cc1Cl
152 to 153 °C	Cc1nn2c(C=O)c(-c3ccccc3)nc2s1
305 °C	Cc1ccc2c(c1)C(=O)c1ccc(C(N)=O)cc1S2(=O)=O
148 °C	N#CC1(C#N)C2CCC(C2)C1(Cl)Cl (stereo not drawn)
160 to 162 °C	Nc1cccc(S(=O)(=O)NC(=O)c2ccccc2)c1
217 to 219 °C	CCOC(=O)Cn1c2c([nH]c(=O)c1=O)CCC1=C2C=C([N+](=O)[O-])CC1
198 °C	CC(C)(C)OC(=O)Nc1ccccc1NC(=O)c1ccc(C(=O)Nc2cccc(Nc3nc(-c4cccnc4)cs3)c2)s1
154 °C	COc1ccc(-c2ccc3ccc(OC)cc3c2)cc1
159 °C	CCc1nc2c(o1)C(=O)C(Cl)=C(Nc1ccccc1)C2=O
179 to 180 °C	CCCCCNC(=O)c1cn2nc(N3CCN(C(=O)c4ccccc4C(F)(F)F)CC3)ccc2n1
127 to 130 °C	CCCCNc1nc(C)c(C(=O)c2ccc(N)c(N)c2)s1
170 to 172 °C	O=C1c2ccccc2C(=O)N1CCCCn1cnc(-c2ccc([N+](=O)[O-])cc2)c1

melting point	SMILES
85 to 86 °C	COC(=O)C=Cc1ccc(OC)cc1
210 °C	Cc1n[nH]c(C)c1-c1ccc(OC2SCC(O)C(O)C2O)cn1 (stereo not drawn)
43 to 45 °C	CCCCCCCCCCCCCCCCCCOc1cccc(C(=O)OC)c1OCCCOc1ccc(OCc2ccccc2)cc1
78 °C	COc1ccc(SCCCC(=O)O)cc1OC
268 °C	O=C1NC(=O)C2(c3ccc4ccc(Cl)nc4n3)C=CC=CC12 (stereo not drawn)
90 to 91 °C	c1cc(OCC2CO2)c2cnsc2c1 (stereo not drawn)
136 to 138 °C	COc1ccc(-c2csc(CO)c2)cc1
83 to 84 °C	CC(=O)N(CCCCN1C(=O)c2ccccc2C1=O)c1ccccc1
99 to 102 °C	COC(C)c1ccc(C(=O)O)cc1 (single isomer, unassigned; (+))
> 300 °C	O=C(O)c1ccc(-c2cc(-c3ccc(Cl)cc3)on2)cc1
228 °C	Oc1ccccc1-c1nnn[nH]1
142 °C	COC(=O)C(C)Oc1ccc(Oc2ccc(C(F)(F)F)cc2)cc1 (stereo not drawn)
171 to 175 °C	CCOC(=O)C1CCCN(C(=O)CCn2cnc3c(=O)[nH]cnc32)C1 (stereo not drawn)
190 to 195 °C	Cc1oc2c(NC(=O)c3c(Cl)cccc3Cl)cccc2c1COC(=O)CCCC(=O)NC(P(=O)(O)O)P(=O)(O)O
63 to 65 °C	COc1cccc(C(=O)c2cc3ccc(OC)cc3o2)c1
129 to 137 °C	COc1cc(OCc2cccnc2)ccc1/C=C/c1cc(/C=C/c2c[nH]c3ccccc23)n[nH]1
99 to 103 °C	COC(=O)C(C(=O)OC)c1ccccc1COc1ccccc1C
250 °C	O=C(O)c1c(Cl)ccc2cc(C(F)(F)F)cnc12
240 to 244 °C	CCOP(=O)(OCC)c1cc2cc(N)c(C(F)(F)F)cc2[nH]c1=O
152 to 153 °C	Cc1cc(=O)oc2c1c(C)nn2CCO
117 °C	Fc1ccc(OCCN2CCC(CNc3nc4ccccc4s3)CC2)cc1
197 to 199 °C	COc1ccc(C(=C/C=C/C(=O)Nc2cccc3cnccc23)c2ccc(OC)cc2)cc1
232 °C	CC(C)(C)c1cc(C=C2SCN(CC(N)=O)C2=O)cc(C(C)(C)C)c1O
207 °C	CC(C)(C)C(COC(N)=O)(NC(=O)C(=O)c1c[nH]c2ccc(Br)cc12)c1c[nH]c2ccc(Br)cc12 (stereo not drawn)

SMILES	melting point
COCc1nnc2n1-c1sc(Cl)cc1C(c1ccccc1[N+](=O)[O-])=NC2	204 to 205 °C
O=C1CC2(CCNCC2)c2cc(Br)ccc2N1	218 °C
